The text below walks through data of patent US10684294B2, “Diarylether-based fluorogenic probes for detection of hypochlorous acid or hydroxyl radical” (THE UNIVERSITY OF HONG KONG, priority 2015, dated 2020).

The nature of assay [1]: Fluorescence response of probe to increasing hypochlorous acid concentration. The settings on record: 10 μM probe. The procedure: Specifically, Compound HKOCl-3 is dissolved in 0.1 M phosphate buffer at pH 7.4 to form a 10 μM solution, with excitation and emission spectra at 490 nm and 527 nm, respectively. The 10 μM solution of compound HKOCl-3 is treated with hypochlorous acid at various concentrations.
Specifically, compound HJ-3-279 is dissolved in 0.1 M phosphate buffer at pH 7.4 to form a 10 μM solution, with excitation and emission spectra at 490 nm and 527 nm, respectively. The 10 μM solution of Compound HJ-3-279 is treated with hypochlorous acid at various concentrations.
Specifically, Compound BXY2142 is dissolved in 0.1 M phosphate buffer at pH 7.4 to form a 10 μM solution, with excitation and emission spectra at 530 nm and 557 nm, respectively. The 10 μM solution of Compound BXY2142 is treated with hypochlorous acid at various concentrations.
Specifically, compound HJ-3-259 is dissolved in 0.1 M phosphate buffer at pH 7.4 to form a 10 μM solution, with excitation and emission spectra at 562 nm and 585 nm, respectively. The 10 μM solution of Compound HJ-3-259 is treated with hypochlorous acid at various concentrations.

Assay [2] in a line: Reactivity of probe toward different ROS and RNS (HOCl selectivity). Conditions: ONOO− 10 μM. The procedure: The reactivity of compound HKOCl-3 is compared toward different reactive oxygen species (ROS) and reactive nitrogen species (RNS). Specifically, the 10 μM solution of compound HKOCl-3 is treated with various ROS and RNS. The concentration of highly reactive oxygen species (hydroxyl radical (^●OH), hypochlorous acid (HOCl), and peroxynitrite (ONOO^−)) is 10 μM. The concentration of ^1O2, O2^●−, ^●NO, ROO^●, TBHP and H2O2 is 100 μM.
The reactivity of compound HJ-3-279 is compared toward different reactive oxygen species (ROS) and reactive nitrogen species (RNS). Specifically, the 10 μM solution of compound HJ-3-279 is treated with various ROS and RNS. The concentration of highly reactive oxygen species (hydroxyl radical (^●OH), hypochlorous acid (HOCl), and peroxynitrite (ONOO^−)) is 10 μM. The concentration of ^1O2, O2^●−, ^●NO, ROO^●, TBHP and H2O2 is 100 μM.
The reactivity of compound BXY2142 is compared toward different reactive oxygen species (ROS) and reactive nitrogen species (RNS). Specifically, the 10 μM solution of compound BXY2142 is treated with various ROS and RNS. The concentration of highly reactive oxygen species (hydroxyl radical (^●OH), hypochlorous acid (HOCl), and peroxynitrite (ONOO^−)) is 10 μM. The concentration of […], ^●NO, ROO^●, TBHP and H2O2 is 100 μM.
The reactivity of compound HJ-3-259 is compared with different reactive oxygen species (ROS) and reactive nitrogen species (RNS). Specifically, the 10 μM solution of compound HJ-3-259 is treated with various ROS and RNS. The concentration of highly reactive oxygen species (hydroxyl radical (^●OH), hypochlorous acid (HOCl), and peroxynitrite (ONOO^−)) is 10 μM. The concentration of ^1O2, O2^●−, ^●NO, ROO^●, TBHP and H2O2 is 100 μM.

The nature of assay [3]: Fluorescence response of probe to hydroxyl radical source (Fenton reagent; TCBQ/H2O2). Conditions: 5 μM probe, 0.1 M phosphate buffer pH 7.4, Fenton reagent or TCBQ/H2O2 (H2O2 10:1). As for the experimental part:
Specifically, compound HYY166 is dissolved in 0.1 M phosphate buffer at pH 7.4 to form a 5 μM solution, with excitation and emission spectra at 490 nm and 520 nm, respectively. The 5 μM solution of compound HYY166 is treated with hydroxyl radical generated from different hydroxyl radical source: (1) Fenton reagent ([H2O2]:[FeCl2]=10:1); (2) Tetrachloro-1,4-benzoquinone (TCBQ)/H2O2 ([H2O2]:[TCBQ]=10:1) system.
Specifically, compound HKOH-1 is dissolved in 0.1 M phosphate buffer at pH 7.4 to form a 5 μM solution, with excitation and emission spectra at 504 nm and 525 nm, respectively. The 5 μM solution of compound HKOH-1 is treated with hydroxyl radical generated from different hydroxyl radical source: (1) Fenton reagent ([H2O2]:[FeCl2]=10:1); (2) Tetrachloro-1,4-benzoquinone (TCBQ)/H2O2 ([H2O2]:[TCBQ]=10:1) system.

Assay [4] is described as follows: Reactivity of probe toward different ROS, RNS, FeCl2, FeCl3 and TCBQ (hydroxyl radical selectivity). The settings on record: 5 μM probe, •OH, HOCl, ONOO−, FeCl2, FeCl3, TCBQ 5 μM, other ROS/RNS 50 μM, especially TCBQ/H2O2 system. As for the experimental part:
The reactivity of compound HYY166 is tested toward different reactive oxygen species (ROS), reactive nitrogen species (RNS), FeCl2, FeCl3 and TCBQ. Specifically, the 5 μM solution of compound HYY166 is treated with various ROS and RNS. The concentration of highly reactive oxygen species (hydroxyl radical (^●OH), hypochlorous acid (HOCl), and peroxynitrite (ONOO^−)), FeCl2, FeCl3 and TCBQ is 5 μM. The concentration of ^1O2, O2^●−, ^●NO, ROO^●, TBHP and H2O2 is 50 μM.
The reactivity of compound HKOH-1 is compared toward different reactive oxygen species (ROS), reactive nitrogen species (RNS), FeCl2, FeCl3 and TCBQ. Specifically, the 5 μM solution of compound HKOH-1 is treated with various ROS and RNS. The concentration of highly reactive oxygen species (hydroxyl radical (^●OH), hypochlorous acid (HOCl), and peroxynitrite (ONOO^−)), FeCl2, FeCl3 and TCBQ is 5 μM. The concentration of ^1O2, O2^●−, ^●NO, ROO^●, TBHP and H2O2 is 50 μM.

[5] abbreviates: 0.1 M phosphate buffer pH 7.4, excitation 490 nm, emission 527 nm.
The mark [6] stands for this setting: 10 μM probe, •OH, 1O2, O2•−, •NO, ROO•, TBHP, H2O2 100 μM, excitation 490 nm, emission 527 nm.
Setting [7] is: excitation 504 nm, emission 525 nm.
[8] abbreviates: excitation 490 nm, emission 520 nm.

For the compound `CCOC(=O)CCCN1c2cc3c(cc2C(C)CC1(C)C)C1(OC(=O)c2ccccc21)c1ccc(Oc2cc(Cl)c(O)c(Cl)c2)cc1O3` (stereo not shown) [BXY2142], the “fluorescence intensity on treatment with hypochlorous acid at various concentrations” value in assay [1] (0.1 M phosphate buffer pH 7.4, excitation 530 nm, emission 557 nm) is on record as “increases with increasing concentration of hypochlorous acid”.

Take `O=C1OC2(c3cc(Cl)c(O)cc3Oc3cc(Oc4cc(Cl)c(O)c(Cl)c4)c(Cl)cc32)c2ccccc21` (stereo not shown) [HJ-3-279]: in assay [1] (setting [5]), the “fluorescence intensity on treatment with hypochlorous acid at various concentrations” value was “increases with increasing concentration of hypochlorous acid”. Also, in assay [2] (setting [6]), the “increase in fluorescence intensity with hypochlorous acid versus other ROS and RNS” value is listed as “much higher increase”.

Regarding `O=C1OC2(c3ccc(O)cc3Oc3cc(Oc4cc(Cl)c(O)c(Cl)c4)ccc32)c2ccccc21` (stereo not shown) [HKOCl-3], in assay [1] (setting [5]), the “fluorescence intensity on treatment with hypochlorous acid at various concentrations” value is recorded as “increases with increasing concentration of hypochlorous acid”. In addition, the “increase in fluorescence intensity with hypochlorous acid versus other ROS and RNS” value is “much higher increase” in assay [2] (setting [6]) and “much higher increase” in assay [2] (10 μM solution of BXY2142, •OH, other ROS/RNS 100 μM, excitation 530 nm, emission 557 nm).

`O=C1OC2(c3cc(Cl)c(O)cc3Oc3cc(Oc4cc(I)c(O)c(I)c4)c(Cl)cc32)c2ccccc21` (stereo not shown) [HKOH-1]: the “fluorescence intensity on treatment with hydroxyl radical source” value in assay [3] (setting [7]) is on record as “increases with increasing concentration of hydroxyl radical source”. For the same compound, the “increase in fluorescence intensity with hydroxyl radical versus other ROS and RNS” value in assay [4] (setting [7]) is “much higher increase”.

Regarding `O=C1OC2(c3ccc(O)cc3Oc3cc(Oc4cc(I)c(O)c(I)c4)ccc32)c2ccccc21` (stereo not shown) [HYY166], the “fluorescence intensity on treatment with hydroxyl radical source” value in assay [3] (setting [8]) is “increases with increasing concentration of hydroxyl radical source”. The “increase in fluorescence intensity with hydroxyl radical versus other ROS and RNS” value in assay [4] (setting [8]) is on record as “much higher increase”.
